From patent US6608062B1 (dated 2003)

| Structure (SMILES) | melting point [°C] |
| --- | --- |
| Cc1nnc(-c2ccccc2)c2nc(OCc3ncnn3C)c(C3CCCC3)n12 | 137 |
| Cn1ncnc1COc1nc2c(-c3ccccc3F)nncn2c1-c1ccccc1 | 195 |
| CCn1ncnc1COc1nc2c(-c3ccccc3)nnc(C)n2c1C1CCCC1 | 94 to 96 |
| Cn1cnc(COc2nc3c(-c4ccccc4F)nncn3c2-c2ccccc2)n1 | 186 |
| Cn1ncnc1COc1nc2c(-c3cc(F)ccc3F)nncn2c1-c1ccccc1 | 200 |
| Cn1ncnc1COc1nc2c(-c3ccc(F)cc3)nncn2c1-c1ccccc1 | 130 |
| Cn1ncnc1COc1nc2c(-c3c(F)cccc3F)nncn2c1-c1ccccc1 | 190 |
| Cn1ncnc1COc1nc2c(-c3ccccc3F)nncn2c1C1CCC1 | 120 |
| Cn1ncnc1COc1nc2c(-c3ccccc3)nncn2c1-c1cccc(Cl)c1 | 80 to 84 |
| Cc1nnc(-c2ccccc2)c2nc(OCc3ncnn3C)c(C3CCC3)n12 | 160 |
| Cn1ncnc1COc1nc2c(-c3ccccc3)nncn2c1-c1ccccc1 (hydrate or solvate) | 179 |
